Results reported in patent US12459921B2, “Isoindoline compound, preparation method, pharmaceutical composition and use thereof” (SHANGHAI INSTITUTE OF MATERIA MEDICA, CHINESE ACADEMY OF …, priority 2018, dated 2025).

What follows are compounds tested on MM.1S cells (assay: Inhibitory effect on the proliferation of MM.1S, MTS cell viability test). Details: Homo sapiens, MM1.S, 168 h, multiple myeloma MM.1S cells, 7 days incubation, read-out: Tumor cell inhibitory activity.
Type: cell-based
Procedure, shortened: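 MM.1S cells (20,000/well, RPMI 1640 with 10% FBS) exposed to 5-fold compound dilutions at 0.2% DMSO for 7 days at 37° C, 5% CO2. MTS added for 3-4 h; OD490-OD690 gave inhibition versus DMSO, IC50 fitted, mean of three experiments.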

| Compound | IC50 [nM] |
| --- | --- |
| CC(=O)N[C@@H](CCCc1cccc2c1CN(C1CCC(=O)NC1=O)C2=O)C(=O)NC12CC3CC(CC(C3)C1)C2 (stereo partly drawn) [Example 198, (2S)-2-acetylamino-N-((3R,5R,7R)-adamantane-1-)-5-(2-(2,6-dioxopiperidine-3-)-1-oxoisoindoline-4-)pentanamide] | < 100 |
| N[C@@H](CCCc1cccc2c1CN(C1CCC(=O)NC1=O)C2=O)c1nc2ccccc2[nH]1 (stereo partly drawn) [Example 199, 3-(4-((S)-4-amino-4-(1H-benzo(d)imidazole-2-)butyl)-1-oxoisoindoline-2-)piperidine-2,6-dione] | > 20000 |
| CC(=O)N[C@@H](CCCc1cccc2c1CN(C1CCC(=O)NC1=O)C2=O)C(=O)NC1C2CC3CC(C2)CC1C3 (stereo partly drawn) [Example 200, (2S)-2-acetylamino-N-((1S,3S,5S,7 S)-adamantane-2-)-5-(2-(2,6-dioxopiperidine-3-)-1-oxoisoindoline-4-)pentanamide] | 100 to 1000 |
| N[C@@H](CCCc1cccc2c1CN(C1CCC(=O)NC1=O)C2=O)c1nc2ccncc2[nH]1 (stereo partly drawn) [Example 201, 3-(4-((S)-4-amino-4-(3H-imidazole[4,5-c]pyridine-2-)butyl)-1-oxoindoline-2-)piperidine-2,6-dione] | > 20000 |
| CC(=O)N[C@@H](CCCc1cccc2c1CN(C1CCC(=O)NC1=O)C2=O)C(=O)Nc1ccc(C)c(Cl)c1 (stereo partly drawn) [Example 202, (2S)-2-acetylamino-N-(3-chloro-4-methylphenyl)-5-(2-(2,6-dioxopiperidine-3-)-1-oxoisoindoline-4-)pentanamide] | < 100 |
| CC(=O)N[C@@H](CCCc1cccc2c1CN(C1CCC(=O)NC1=O)C2=O)c1nc2ccccc2[nH]1 (stereo partly drawn) [Example 203, N-((1S)-1-(1H-benzo[d]imidazole-2-)-4-(2-(2,6-dioxopiperidine-3-)-1-oxoisoindoline-4-)butyl)amide] | 100 to 1000 |
| CC(=O)N[C@@H](CCCc1cccc2c1CN(C1CCC(=O)NC1=O)C2=O)C(=O)N(C)Cc1ccccc1 (stereo partly drawn) [Example 204, (2S)-2-acetylamino-N-benzyl-5-(2-(2,6-oxopiperidine-3-)-1-oxoisoindoline-4-)-N-methylpentanamide] | 1000 to 20000 |
| CC(=O)N[C@@H](CCCc1cccc2c1CN(C1CCC(=O)NC1=O)C2=O)c1nc2ccncc2[nH]1 (stereo partly drawn) [Example 205, N-((1S)-4-(2-(2,6-dioxopiperidine-3-)-1-oxoisoindoline-4-)-1-(3H-imidazole[4,5-c]pyridine-2-)butyl)acetamide] | > 20000 |
| CCC(=O)N[C@@H](CCCc1cccc2c1CN(C1CCC(=O)NC1=O)C2=O)C(=O)NCc1ccccc1 (stereo partly drawn) [Example 206, (2S)—N-benzyl-5-(2-(2,6-dioxopiperidine-3-)-1-oxoisoindoline-4-)-2-propionamidopentaneamide] | < 100 |
| CC(=O)N[C@@H](CCCc1cccc2c1CN(C1CCC(=O)NC1=O)C2=O)C(=O)N1CCC2(CC1)OCc1ccccc12 (stereo partly drawn) [Example 207, N-((2S)-5-(2-(2,6-dioxopiperidine-3-)-1-oxoisoindoline-4-)-1-oxo-1-(3H-spiro[isobenzofuran-1,4′-piperidine]-1′-)pentyl-2-)acetamide] | 100 to 1000 |
| [2H]c1c([2H])c([2H])c(N2CCN(CCCCc3cccc4c3CN(C3CCC(=O)NC3=O)C4=O)CC2)c([2H])c1[2H] (centres unmarked) [Example 208, 3-(1-oxo-4-(4-(4-(phenyl-d5)piperazine-1-)butyl)isoindoline-2-)piperidine-2,6-dione] | 100 to 1000 |
| [2H]c1c([2H])c([2H])c(N2CCN(CCCCCCc3cccc4c3CN(C3CCC(=O)NC3=O)C4=O)CC2)c([2H])c1[2H] (centres unmarked) [Example 209, 3-(1-oxo-4-(6-(4-(phenyl-d5)piperazine-1-)hexyl)isoindoline-2-)piperidine-2,6-dione] | < 100 |
| [2H]c1c([2H])c([2H])c(N2CCN(CCCCCc3cccc4c3CN(C3CCC(=O)NC3=O)C4=O)CC2)c([2H])c1[2H] (centres unmarked) [Example 210] | 100 to 1000 |
| O=C1CCC(N2Cc3c(OCCCCOc4ccnc5ccccc45)cc(F)cc3C2=O)C(=O)N1 (centres unmarked) [Example 211, 3-(6-fluoro-1-oxy-4-(4-(quinoline-4-oxy)butoxy)-1-oxoisoindoline-2-)piperidine-2,6-dione] | < 100 |
| Cc1cc(OCCCCOc2cc(F)cc3c2CN(C2CCC(=O)NC2=O)C3=O)c2ccccc2n1 (centres unmarked) [Example 212, 3-(6-fluoro-4-(4-((2-methylquinoline-4-)oxy)butoxy)-1-oxoisoindoline-2-)piperidine-2,6-dione] | < 100 |
| Cc1cc(COCCCCOc2cccc3c2CN(C2CCC(=O)NC2=O)C3=O)c2ccccc2n1 (centres unmarked) [Example 213, 3-(4-(4-((2-methylquinoline-4-)methoxy)butoxy)-1-oxoisoindoline-2-)piperidine-2,6-dione] | 100 to 1000 |
| CCc1cc(COCCCCOc2cccc3c2CN(C2CCC(=O)NC2=O)C3=O)c2ccccc2n1 (centres unmarked) [Example 214, 3-(4-(4-((2-ethylquinoline-4-)methoxy)butoxy)-1-oxoisoindoline-2-)piperidine-2,6-dione] | 100 to 1000 |
| O=C1CCC(N2Cc3c(CCCCN4CCN(c5cc(Cl)cc(Cl)c5)CC4)cccc3C2=O)C(=O)N1 (centres unmarked) [Example 223, 3-(4-(4-(4-(3,5-dichlorophenyl)piperazine-1-yl)butyl)-1-oxoisoindoline-2-yl) piperidine-2,6-dione] | < 100 |

The next lines start with the values.

| IC50 [nM] | Compound |
| --- | --- |
| < 100 | O=C1CCC(N2Cc3c(CCCCN4CCN(c5ccccc5Cl)CC4)cccc3C2=O)C(=O)N1 (centres unmarked) [Example 215, 3-(4-(4-(4-(2-chlorophenyl)piperazine-1-yl)butyl)-1-oxoisoindoline-2-yl) piperidine-2,6-dione] |
| < 100 | O=C1CCC(N2Cc3c(CCCCN4CCN(c5ccccc5[N+](=O)[O-])CC4)cccc3C2=O)C(=O)N1 (centres unmarked) [Example 216, 3-(4-(4-(4-(2-nitrophenyl)piperazine-1-yl)butyl)-1-oxoisoindoline-2-yl) piperidine-2,6-dione] |
| < 100 | Cc1ccccc1N1CCN(CCCCc2cccc3c2CN(C2CCC(=O)NC2=O)C3=O)CC1 (centres unmarked) [Example 217, 3-(1-oxo-4-(4-(4-(o-tolyl)piperazine-1-yl)butyl)isoindoline-2-yl)piperidine-2,6-dione] |
| < 100 | O=C1CCC(N2Cc3c(CCCCN4CCN(c5ccccc5F)CC4)cccc3C2=O)C(=O)N1 (centres unmarked) [Example 218, 3-(4-(4-(4-(2-fluorophenyl)piperazine-1-yl)butyl)-1-oxoisoindoline-2-yl)piperidine-2,6-dione] |
| < 100 | O=C1CCC(N2Cc3c(CCCCN4CCN(c5ccccc5C(F)(F)F)CC4)cccc3C2=O)C(=O)N1 (centres unmarked) [Example 219, 3-(1-oxo-4-(4-(4-(2-(trifluoromethyl)phenyl)piperazine-1-yl)butyl)isoindoline-2-yl)piperidine-2,6-dione] |
| < 100 | O=C1CCC(N2Cc3c(CCCCN4CCN(c5cccc(C(F)(F)F)c5)CC4)cccc3C2=O)C(=O)N1 (centres unmarked) [Example 220, 3-(1-oxo-4-(4-(4-(3-(trifluoromethyl)phenyl)piperazine-1-yl)butyl)isoindoline-2-yl)piperidine-2,6-dione] |
| < 100 | O=C1CCC(N2Cc3c(CCCCN4CCN(c5ccc(Cl)cc5Cl)CC4)cccc3C2=O)C(=O)N1 (centres unmarked) [Example 222, 3-(4-(4-(4-(2,4-dichlorophenyl)piperazine-1-yl)butyl)-1-oxoisoindoline-2-yl)piperidine-2,6-dione] |
| < 100 | COc1ccccc1N1CCN(CCCCc2cccc3c2CN(C2CCC(=O)NC2=O)C3=O)CC1 (centres unmarked) [Example 224, 3-(4-(4-(4-(2-methoxyphenyl)piperazine-1-yl)butyl)-1-isoindoline-2-yl)piperidine-2,6-dione] |
